Measured values taken from ChEMBL document CHEMBL1641568, “An on-bead assay for the identification of non-natural peptides targeting the androgen receptor-cofactor interaction” (Bioorg Med Chem, 2011).
Square brackets hold non-standard residues; d marks the D form. Peptide text beside a SMILES is read from it. Phe(4-Cl) = N[C@@H](Cc1ccc(Cl)cc1)C(=O)O; 2Nal = N[C@@H](Cc1ccc2ccccc2c1)C(=O)O; Cha = N[C@@H](CC1CCCCC1)C(=O)O

Assay: Inhibition of human GST-tagged androgen receptor-ligand binding domain/cofactor interaction assessed as fluorescence polarization by competition assay
For H-SSRFESLFAGEKESRG-OH, the Ki was 760 nM.
Work on `C[C@H](NC(=O)[C@H](Cc1c[nH]c2ccccc12)NC(=O)[C@H](CC1CCCCC1)NC(=O)[C@H](CO)NC(=O)[C@H](CCC(=O)O)NC(=O)[C@H](Cc1ccc2ccccc2c1)NC(=O)[C@H](CCCNC(=N)N)NC(=O)[C@H](CO)NC(=O)[C@@H](N)CO)C(=O)NCC(=O)N[C@@H](CCC(=O)O)C(=O)N[C@@H](CCCCN)C(=O)N[C@@H](CCC(=O)O)C(=O)N[C@@H](CO)C(=O)N[C@@H](CCCNC(=N)N)C(=O)NCC(=O)O` (H-SSR[2Nal]ES[Cha]WAGEKESRG-OH) yielded a Ki of 470 nM.
`C[C@H](NC(=O)[C@H](CC1CCCCC1)NC(=O)[C@H](Cc1ccccc1)NC(=O)[C@H](CO)NC(=O)[C@H](CCC(=O)O)NC(=O)[C@H](Cc1c[nH]c2ccccc12)NC(=O)[C@H](CCCNC(=N)N)NC(=O)[C@H](CO)NC(=O)[C@@H](N)CO)C(=O)NCC(=O)N[C@@H](CCC(=O)O)C(=O)N[C@@H](CCCCN)C(=O)N[C@@H](CCC(=O)O)C(=O)N[C@@H](CO)C(=O)N[C@@H](CCCNC(=N)N)C(=O)NCC(=O)O` (H-SSRWESF[Cha]AGEKESRG-OH) gave a Ki of 2440 nM.
H-SSRFESWFAGEKESRG-OH showed a Ki of 940 nM.
In the case of `CC(C)C[C@H](NC(=O)[C@H](CO)NC(=O)[C@H](CCC(=O)O)NC(=O)[C@H](Cc1ccc2ccccc2c1)NC(=O)[C@H](CCCNC(=N)N)NC(=O)[C@H](CO)NC(=O)[C@@H](N)CO)C(=O)N[C@@H](Cc1c[nH]c2ccccc12)C(=O)N[C@@H](C)C(=O)NCC(=O)N[C@@H](CCC(=O)O)C(=O)N[C@@H](CCCCN)C(=O)N[C@@H](CCC(=O)O)C(=O)N[C@@H](CO)C(=O)N[C@@H](CCCNC(=N)N)C(=O)NCC(=O)O` (H-SSR[2Nal]ESLWAGEKESRG-OH), the Ki is reported as 3680 nM.
H-SSRWESWFAGEKESRG-OH gave a Ki of 82900 nM.
Work on `CC(C)C[C@H](NC(=O)[C@H](CCCNC(=N)N)NC(=O)[C@H](CO)NC(=O)[C@@H](N)CO)C(=O)N[C@@H](CCC(=O)O)C(=O)N[C@@H](CO)C(=O)N[C@@H](Cc1c[nH]c2ccccc12)C(=O)N[C@@H](Cc1ccc(Cl)cc1)C(=O)N[C@@H](C)C(=O)NCC(=O)N[C@@H](CCC(=O)O)C(=O)N[C@@H](CCCCN)C(=O)N[C@@H](CCC(=O)O)C(=O)N[C@@H](CO)C(=O)N[C@@H](CCCNC(=N)N)C(=O)NCC(=O)O` (H-SSRLESW[Phe(4-Cl)]AGEKESRG-OH) yielded a Ki of 166000 nM.
